Data from ChEMBL document CHEMBL4414672, “Synthesis of certain benzothieno[3,2-d]pyrimidine derivatives as a selective SIRT2 inhibitors” (Eur J Med Chem, 2020).

Tests used:
Assay type in all cases: functional
NCI-H460 = experiment: Growth inhibition of human NCI-H460 cells at 10^-5 M incubated for 48 hrs by sulforhodamine B assay; details: NCI-H460, 48 h, read-out: GI
PC-3 = experiment: Growth inhibition of human PC3 cells at 10^-5 M incubated for 48 hrs by sulforhodamine B assay; details: PC-3, 48 h, read-out: GI
OVCAR-4 = experiment: Growth inhibition of human OVCAR4 cells at 10^-5 M incubated for 48 hrs by sulforhodamine B assay; details: OVCAR-4, 48 h, read-out: GI
HT-29 = experiment: Growth inhibition of human HT-29 cells at 10^-5 M incubated for 48 hrs by sulforhodamine B assay; details: HT-29, 48 h, read-out: GI
K562 = experiment: Growth inhibition of human K562 cells at 10^-5 M incubated for 48 hrs by sulforhodamine B assay; details: K562, 48 h, read-out: GI
SK-MEL-28 = experiment: Growth inhibition of human SK-MEL-28 cells at 10^-5 M incubated for 48 hrs by sulforhodamine B assay; details: SK-MEL-28, 48 h, read-out: GI
TK-10 = experiment: Growth inhibition of human TK10 cells at 10^-5 M incubated for 48 hrs by sulforhodamine B assay; details: TK-10, 48 h, read-out: GI
NCI-H23 = experiment: Growth inhibition of human NCI-H23 cells at 10^-5 M incubated for 48 hrs by sulforhodamine B assay; details: NCI-H23, 48 h, read-out: GI
HL-60(TB) = experiment: Growth inhibition of human HL-60(TB) cells at 10^-5 M incubated for 48 hrs by sulforhodamine B assay; details: HL-60, 48 h, read-out: GI
IGROV-1 = experiment: Growth inhibition of human IGROV1 cells at 10^-5 M incubated for 48 hrs by sulforhodamine B assay; details: IGROV-1, 48 h, read-out: GI
SF-268 = experiment: Growth inhibition of human SF268 cells at 10^-5 M incubated for 48 hrs by sulforhodamine B assay; details: SF-268, 48 h, read-out: GI
EKVX = experiment: Growth inhibition of human EKVX cells at 10^-5 M incubated for 48 hrs by sulforhodamine B assay; details: read-out: GI
SNB-19 = experiment: Growth inhibition of human SNB19 cells at 10^-5 M incubated for 48 hrs by sulforhodamine B assay; details: SNB-19, 48 h, read-out: GI
MDA-MB-435 = experiment: Growth inhibition of human MDA-MB-435 cells at 10^-5 M incubated for 48 hrs by sulforhodamine B assay; details: MDA-MB-435, 48 h, read-out: GI
HCT-116 = experiment: Growth inhibition of human HCT116 cells at 10^-5 M incubated for 48 hrs by sulforhodamine B assay; details: HCT-116, 48 h, read-out: GI
M14 = experiment: Growth inhibition of human M14 cells at 10^-5 M incubated for 48 hrs by sulforhodamine B assay; details: M14, 48 h, read-out: GI
SK-MEL-2 = experiment: Growth inhibition of human SK-MEL-2 cells at 10^-5 M incubated for 48 hrs by sulforhodamine B assay; details: SK-MEL-2, 48 h, read-out: GI
Hs-578T = experiment: Growth inhibition of human Hs 578T cells at 10^-5 M incubated for 48 hrs by sulforhodamine B assay; details: read-out: GI
SF-539 = experiment: Growth inhibition of human SF539 cells at 10^-5 M incubated for 48 hrs by sulforhodamine B assay; details: SF-539, 48 h, read-out: GI
HOP-92 = experiment: Growth inhibition of human HOP92 cells at 10^-5 M incubated for 48 hrs by sulforhodamine B assay; details: HOP-92, 48 h, read-out: GI
DU-145 = experiment: Growth inhibition of human DU145 cells at 10^-5 M incubated for 48 hrs by sulforhodamine B assay; details: DU-145, 48 h, read-out: GI
UO-31 = experiment: Growth inhibition of human UO31 cells at 10^-5 M incubated for 48 hrs by sulforhodamine B assay; details: UO-31, 48 h, read-out: GI
786-0 = experiment: Growth inhibition of human 786-0 cells at 10^-5 M incubated for 48 hrs by sulforhodamine B assay; details: 786-0, 48 h, read-out: GI
MCF7 = experiment: Growth inhibition of human MCF7 cells at 10^-5 M incubated for 48 hrs by sulforhodamine B assay; details: MCF7, 48 h, read-out: GI
OVCAR-8 = experiment: Growth inhibition of human OVCAR8 cells at 10^-5 M incubated for 48 hrs by sulforhodamine B assay; details: OVCAR-8, 48 h, read-out: GI
SF-295 = experiment: Growth inhibition of human SF295 cells at 10^-5 M incubated for 48 hrs by sulforhodamine B assay; details: SF-295, 48 h, read-out: GI
ACHN = experiment: Growth inhibition of human ACHN cells at 10^-5 M incubated for 48 hrs by sulforhodamine B assay; details: read-out: GI
HOP-62 = experiment: Growth inhibition of human HOP62 cells at 10^-5 M incubated for 48 hrs by sulforhodamine B assay; details: HOP-62, 48 h, read-out: GI
Malme-3M = experiment: Growth inhibition of human MALME-3M cells at 10^-5 M incubated for 48 hrs by sulforhodamine B assay; details: read-out: GI
OVCAR-5 = experiment: Growth inhibition of human OVCAR5 cells at 10^-5 M incubated for 48 hrs by sulforhodamine B assay; details: OVCAR-5, 48 h, read-out: GI
NCI-H522 = experiment: Growth inhibition of human NCI-H522 cells at 10^-5 M incubated for 48 hrs by sulforhodamine B assay; details: NCI-H522, 48 h, read-out: GI
SN12C = experiment: Growth inhibition of human SN12C cells at 10^-5 M incubated for 48 hrs by sulforhodamine B assay; details: read-out: GI
A498 = experiment: Growth inhibition of human A498 cells at 10^-5 M incubated for 48 hrs by sulforhodamine B assay; details: A498, 48 h, read-out: GI
KM12 = experiment: Growth inhibition of human KM12 cells at 10^-5 M incubated for 48 hrs by sulforhodamine B assay; details: KM12, 48 h, read-out: GI
LOX IMVI = experiment: Growth inhibition of human LOXIMVI cells at 10^-5 M incubated for 48 hrs by sulforhodamine B assay; details: read-out: GI
UACC-257 = experiment: Growth inhibition of human UACC257 cells at 10^-5 M incubated for 48 hrs by sulforhodamine B assay; details: UACC-257, 48 h, read-out: GI
UACC-62 = experiment: Growth inhibition of human UACC62 cells at 10^-5 M incubated for 48 hrs by sulforhodamine B assay; details: UACC-62, 48 h, read-out: GI
CCRF-CEM = experiment: Growth inhibition of human CCRF-CEM cells at 10^-5 M incubated for 48 hrs by sulforhodamine B assay; details: read-out: GI
SK-OV-3 = experiment: Growth inhibition of human SKOV3 cells at 10^-5 M incubated for 48 hrs by sulforhodamine B assay; details: SK-OV-3, 48 h, read-out: GI

S=C1Nc2c(sc3ccc(Cl)cc23)C(c2ccc3ccccc3c2)N1 (stereo not drawn)
inhibition of growth at 10 µM (NCI-H460): 6.2% | inhibition of growth at 10 µM (PC-3): 14.5% | inhibition of growth at 10 µM (OVCAR-4): 11% | inhibition of growth at 10 µM (HT-29): 0.32% | inhibition of growth at 10 µM (K562): 4% | inhibition of growth at 10 µM (SK-MEL-28): -2.16% | inhibition of growth at 10 µM (TK-10): -25.5% | inhibition of growth at 10 µM (NCI-H23): 15.2% | inhibition of growth at 10 µM (HL-60(TB)): -2.53% | inhibition of growth at 10 µM (IGROV-1): 16.8% | inhibition of growth at 10 µM (SF-268): 10.3% | inhibition of growth at 10 µM (EKVX): 14.6% | inhibition of growth at 10 µM (SNB-19): 7.85% | inhibition of growth at 10 µM (MDA-MB-435): -2.5% | inhibition of growth at 10 µM (HCT-116): 9.94% | inhibition of growth at 10 µM (M14): 7.85% | inhibition of growth at 10 µM (SK-MEL-2): 9.98% | inhibition of growth at 10 µM (Hs-578T): 8.86% | inhibition of growth at 10 µM (SF-539): 3.23% | inhibition of growth at 10 µM (HOP-92): 27.5% | inhibition of growth at 10 µM (DU-145): -6.73% | inhibition of growth at 10 µM (UO-31): -25.5% | inhibition of growth at 10 µM (786-0): 4.93% | inhibition of growth at 10 µM (MCF7): -6.73% | inhibition of growth at 10 µM (OVCAR-8): 8.23% | inhibition of growth at 10 µM (SF-295): 3.23% | inhibition of growth at 10 µM (ACHN): 12.4% | inhibition of growth at 10 µM (HOP-62): 10.1% | inhibition of growth at 10 µM (Malme-3M): 18.4% | inhibition of growth at 10 µM (OVCAR-5): 5.36% | inhibition of growth at 10 µM (NCI-H522): 17.7% | inhibition of growth at 10 µM (SN12C): 9.45% | inhibition of growth at 10 µM (A498): 14.9% | inhibition of growth at 10 µM (KM12): -6.6% | inhibition of growth at 10 µM (LOX IMVI): 7.47% | inhibition of growth at 10 µM (UACC-257): 1.95% | inhibition of growth at 10 µM (UACC-62): 13.9% | inhibition of growth at 10 µM (CCRF-CEM): -3.09% | inhibition of growth at 10 µM (SK-OV-3): 12.2%

O=C1Nc2c(sc3ccc(Cl)cc23)C(c2ccc3ccccc3c2)N1 (stereo not drawn)
inhibition of growth at 10 µM (NCI-H460): 2.77% | inhibition of growth at 10 µM (PC-3): 7.25% | inhibition of growth at 10 µM (OVCAR-4): 3.19% | inhibition of growth at 10 µM (HT-29): -0.76% | inhibition of growth at 10 µM (K562): 14% | inhibition of growth at 10 µM (SK-MEL-28): 3.5% | inhibition of growth at 10 µM (TK-10): 15.4% | inhibition of growth at 10 µM (NCI-H23): 11.7% | inhibition of growth at 10 µM (HL-60(TB)): 5.39% | inhibition of growth at 10 µM (IGROV-1): 17.4% | inhibition of growth at 10 µM (SF-268): 6.94% | inhibition of growth at 10 µM (EKVX): 16.5% | inhibition of growth at 10 µM (SNB-19): 2.49% | inhibition of growth at 10 µM (MDA-MB-435): -8.72% | inhibition of growth at 10 µM (HCT-116): -4.42% | inhibition of growth at 10 µM (M14): 6.72% | inhibition of growth at 10 µM (SK-MEL-2): 0.12% | inhibition of growth at 10 µM (Hs-578T): 3.46% | inhibition of growth at 10 µM (SF-539): 3.67% | inhibition of growth at 10 µM (HOP-92): 24.7% | inhibition of growth at 10 µM (DU-145): -6.96% | inhibition of growth at 10 µM (UO-31): 37.4% | inhibition of growth at 10 µM (786-0): 6.06% | inhibition of growth at 10 µM (MCF7): 22.5% | inhibition of growth at 10 µM (OVCAR-8): 6.44% | inhibition of growth at 10 µM (SF-295): 2.29% | inhibition of growth at 10 µM (ACHN): 10.1% | inhibition of growth at 10 µM (HOP-62): 13.9% | inhibition of growth at 10 µM (Malme-3M): 17.3% | inhibition of growth at 10 µM (OVCAR-5): 8.06% | inhibition of growth at 10 µM (NCI-H522): 11.9% | inhibition of growth at 10 µM (SN12C): 10.9% | inhibition of growth at 10 µM (A498): 15.2% | inhibition of growth at 10 µM (KM12): -4.05% | inhibition of growth at 10 µM (LOX IMVI): -0.62% | inhibition of growth at 10 µM (UACC-257): 14.5% | inhibition of growth at 10 µM (UACC-62): -1.09% | inhibition of growth at 10 µM (CCRF-CEM): -13.3% | inhibition of growth at 10 µM (SK-OV-3): 16.8%
